Tested on: SARS-CoV-2-PP (614G, Delta, UK, Brazil variants) infecting ACE2 expression cells
Assay type: cell-based

Row | Structure (SMILES) | difference of effect between variants | effect on variants when combined with Oleic acid or Linoleic acid | inhibition of SARS-CoV-2-PP infection
1 | CCCCCCCCCCCCCCCC(=O)O [palmitic acid] | a difference between the Brazil variant and the other variants | strongest inhibition on the Delta variant | good inhibitor
2 | CC1=CC(=O)C(C(C)C)=CC1=O [thymoquinone] |  |  | good inhibitor
